Measured values taken from ChEMBL document CHEMBL2203256, “Design and evaluation of azaindole-substituted N-hydroxypyridones as glyoxalase I inhibitors” (Bioorg Med Chem Lett, 2012).

Experiments:
[1] = target: Lactoylglutathione lyase (Homo sapiens, UniProt Q04760); assay: Inhibition of human recombinant GLO1 expressed in Escherichia coli BL21 assessed as decrease in reduced glutathione level after 1 hr by Ellman's method
[2] = Half life in mouse serum at […]; type: ADME, cell-free
[3] = system: Liver; assay: Clearance in mouse liver microsomes assessed per mg of protein at 1 uM after 30 mins in presence of NADPH; type: ADME, Microsome; details: 0.5 h
[4] = system: Liver microsomes; assay: Clearance in human liver microsomes assessed per mg of protein at 1 uM after 30 mins in presence of NADPH; type: ADME, Microsome; details: 0.5 h
[5] = system: Liver microsomes; assay: Clearance in human liver microsomes assessed per mg of protein at 1 uM after 30 mins in absence of NADPH; type: ADME, Microsome; details: 0.5 h
[6] = Half life in human serum at […]; type: ADME, cell-free
[7] = system: Liver; assay: Clearance in mouse liver microsomes assessed per mg of protein at 1 uM after 30 mins in absence of NADPH; type: ADME, Microsome; details: 0.5 h

Chain of Lactoylglutathione lyase (Q04760 whole entry): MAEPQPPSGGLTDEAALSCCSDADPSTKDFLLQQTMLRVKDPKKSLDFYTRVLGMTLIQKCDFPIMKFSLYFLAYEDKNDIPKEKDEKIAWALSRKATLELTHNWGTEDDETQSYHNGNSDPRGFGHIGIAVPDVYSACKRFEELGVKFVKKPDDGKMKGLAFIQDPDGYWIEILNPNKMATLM

SMILES	IC50 [1] [nM]	other results
O=c1cc(-c2ccc(C(F)(F)F)cc2)cc(-c2ccccc2)n1O	8130	–
O=c1cc(-c2ccccc2)cc(-c2ccccc2)n1O	1190	half-life [2]: 7.33 h; CLint [3]: 28 µL/min/mg; CLint [4]: 16 µL/min/mg; CLint [5]: 6.6 µL/min/mg; half-life [6]: 48.3 h; CLint [7]: 6.8 µL/min/mg
COCCCn1ccc2cc(-c3cc(-c4ccccc4)cc(=O)n3O)ccc21	300	–
O=c1cc(-c2ccc(-c3ccccc3)cc2)cc(-c2ccccc2)n1O	8400	–
O=c1cc(-c2cccnc2)cc(-c2ccccc2)n1O	8280	–
NC(=O)c1cccc(Cn2ccc3cc(-c4cc(-c5ccccc5)cc(=O)n4O)cnc32)c1	40	–
CCCCc1cc(-c2ccccc2)n(O)c(=O)c1	> 10000	–
O=c1cc(-c2ccsc2)cc(-c2ccccc2)n1O	1520	–
CCCCCn1ccc2cc(-c3cc(-c4ccccc4)cc(=O)n3O)cnc21	510	–
CCCCn1ccc2cc(-c3cc(-c4ccccc4)cc(=O)n3O)cnc21	300	–
COCCn1ccc2cc(-c3cc(-c4ccccc4)cc(=O)n3O)ccc21	260	–
COCCn1ccc2cc(-c3cc(-c4ccccc4)cc(=O)n3O)cnc21	14	–
O=c1cc(-c2ccccc2)cc(-c2cnc3[nH]ccc3c2)n1O	280	–
NC(=O)c1cccc(Cn2ccc3cc(-c4cc(-c5ccccc5)cc(=O)n4O)ccc32)c1	480	–
CCC#Cc1cc(-c2ccccc2)n(O)c(=O)c1	> 10000	–
O=c1cc(-c2ccccc2)cc(-c2ccc3[nH]ccc3c2)n1O	250	–
